Results published in patent publication US20230295197A1, “STAT5 and STAT6 Degraders and Uses Thereof” (REGENTS OF THE UNIVERSITY OF MICHICAN, priority 2022, published 2023).
Read-outs that look alike come from different tables or passages of the source.

Molecular target: T1, STAT6 (Homo sapiens, UniProt P42226)
T1 construct: endogenous in cells; host or cells: MOLM-16, KU-812, SKNO1, MB231, L1236
T1 sequence (P42226 1-847): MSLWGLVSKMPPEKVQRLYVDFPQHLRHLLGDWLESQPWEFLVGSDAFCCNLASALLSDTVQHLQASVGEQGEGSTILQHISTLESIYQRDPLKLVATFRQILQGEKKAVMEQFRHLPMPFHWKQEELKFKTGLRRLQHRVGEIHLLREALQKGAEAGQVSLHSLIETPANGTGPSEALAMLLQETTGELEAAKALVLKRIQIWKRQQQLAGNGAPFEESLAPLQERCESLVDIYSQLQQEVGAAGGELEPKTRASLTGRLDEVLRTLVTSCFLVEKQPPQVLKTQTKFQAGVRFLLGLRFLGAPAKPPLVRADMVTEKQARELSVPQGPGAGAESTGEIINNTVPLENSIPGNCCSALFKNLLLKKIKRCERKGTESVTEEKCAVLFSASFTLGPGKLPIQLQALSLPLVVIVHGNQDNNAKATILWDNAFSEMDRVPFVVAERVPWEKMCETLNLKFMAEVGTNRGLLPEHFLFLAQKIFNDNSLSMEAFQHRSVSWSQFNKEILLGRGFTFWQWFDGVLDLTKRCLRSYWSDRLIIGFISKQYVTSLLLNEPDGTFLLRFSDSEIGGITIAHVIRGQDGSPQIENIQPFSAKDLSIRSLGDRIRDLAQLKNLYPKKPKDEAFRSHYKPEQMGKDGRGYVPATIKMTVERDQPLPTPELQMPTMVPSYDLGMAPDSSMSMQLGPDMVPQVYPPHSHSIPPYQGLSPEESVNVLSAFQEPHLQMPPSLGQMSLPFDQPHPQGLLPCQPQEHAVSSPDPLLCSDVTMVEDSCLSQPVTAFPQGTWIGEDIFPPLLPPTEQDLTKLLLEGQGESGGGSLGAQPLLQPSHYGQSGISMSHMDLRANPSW
Test: Immunoblotting (Western blot) analysis of STAT6 degradation efficiency of degraders in treated cells
Type: cell-based
How it was run: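 About 1 million cells per point, grown in 10% FBS medium at 37 °C/5% CO2, were exposed to compound at the indicated concentrations and times, then lysed in RIPA buffer with protease and phosphatase inhibitors. Equal protein (20-40 μg) was resolved by SDS-PAGE, blotted to PVDF, and probed with anti-STAT5, anti-STAT6 and anti-GAPDH antibodies.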

[1] = L1236 cells, read-out: DC50 S6 L1236
[2] = MOLM-16 cells, class symbols, read-out: DC50 S6 MOLM-16

| Compound | DC50 [1] | DC50 [2] | DC50 (MOLM-16 cells, numeric bound, read-out: DC50 S6 MOLM-16) |
| --- | --- | --- | --- |
| Cc1ncsc1-c1ccc([C@H](C)NC(=O)[C@@H]2C[C@@H](O)CN2C(=O)[C@@H](NC(=O)CCNC(=O)CO[C@H]2C[C@@H](C(=O)N3CCO[C@H](c4ccccc4)C3)N(C(=O)[C@@H](NC(=O)c3cc4cc(C(F)(F)P(=O)(O)O)ccc4s3)C(C)(C)C)C2)C(C)(C)C)cc1 [Compound 426, (difluoro(2-(((S)-1-((2S,4S)-4-(2-((3-(((S)-1-((2S,4R)-4-hydroxy-2-(((S)-1-(4-(4-methylthiazol-5-yl)phenyl)ethyl)carbamoyl)pyrrolidin-1-yl)-3,3-dimethyl-1-oxobutan-2-yl)amino)-3-oxopropyl)amino)-2-oxoethoxy)-2-((R)-2-phenylmorpholine-4-carbonyl)pyrrolidin-1-yl)-3,3-dimethyl-1-oxobutan-2-yl)carbamoyl)benzo[b]thiophen-5-yl)methyl)phosphonic acid] | > 10 µM | > 10 µM |  |
| Cc1ncsc1-c1ccc([C@H](C)NC(=O)[C@@H]2C[C@@H](O)CN2C(=O)[C@@H](NC(=O)CCCNC(=O)CO[C@H]2C[C@@H](C(=O)N3CCC[C@H](c4ccccc4)C3)N(C(=O)[C@@H](NC(=O)c3cc4cc(C(F)(F)P(=O)(O)O)ccc4s3)C(C)(C)C)C2)C(C)(C)C)cc1 [Compound 436, (difluoro(2-(((S)-1-((2S,4S)-4-(2-((4-(((S)-1-((2S,4R)-4-hydroxy-2-(((S)-1-(4-(4-methylthiazol-5-yl)phenyl)ethyl)carbamoyl)pyrrolidin-1-yl)-3,3-dimethyl-1-oxobutan-2-yl)amino)-4-oxobutyl)amino)-2-oxoethoxy)-2-((R)-3-phenylpiperidine-1-carbonyl)pyrrolidin-1-yl)-3,3-dimethyl-1-oxobutan-2-yl)carbamoyl)benzo[b]thiophen-5-yl)methyl)phosphonic acid] | > 10 µM | > 10 µM |  |
| O=C1CCC(N2Cc3c(C#CCCCCCC(=O)N4CC[C@H]5CC[C@@H](C(=O)N6CC[C@@H](c7ccccc7)C6)N5C(=O)[C@@H](NC(=O)c5cc6cc(C(F)(F)P(=O)(O)O)ccc6s5)C4)cccc3C2=O)C(=O)N1 (stereo partly drawn) [Compound 563, ((2-(((5S,8S,10aR)-3-(8-(2-(2,6-dioxopiperidin-3-yl)-1-oxoisoindolin-4-yl)oct-7-ynoyl)-6-oxo-8-((S)-3-phenylpyrrolidine-1-carbonyl)decahydropyrrolo[1,2-a][1,5]diazocin-5-yl)carbamoyl)benzo[b]thiophen-5-yl)difluoromethyl)phosphonic acid] | > 10 µM | > 10 µM |  |
| CC(C)(C)[C@H](NC(=O)c1cc2cc(C(F)(F)P(=O)(O)O)ccc2s1)C(=O)N1C[C@@H](OCCCCCCNc2cccc3c2CN(C2CCC(=O)NC2=O)C3=O)C[C@H]1C(=O)N1CCO[C@H](c2ccccc2)C1 (stereo partly drawn) [Compound 599, ((2-(((2S)-1-((2S,4S)-4-((6-((2-(2,6-dioxopiperidin-3-yl)-1-oxoisoindolin-4-yl)amino)hexyl)oxy)-2-((R)-2-phenylmorpholine-4-carbonyl)pyrrolidin-1-yl)-3,3-dimethyl-1-oxobutan-2-yl)carbamoyl)benzo[b]thiophen-5-yl)difluoromethyl)phosphonic acid] |  |  | > 0.3 µM |
| CC(C)(C)[C@H](NC(=O)c1cc2cc(C(F)(F)P(=O)(O)O)ccc2s1)C(=O)N1Cc2cc(OCC(=O)NCCCCC#Cc3cccc4c3C(=O)N(C3CCC(=O)NC3=O)C4=O)ccc2C[C@H]1C(=O)N1CCO[C@H](c2ccccc2)C1 (stereo partly drawn) [Compound 541, ((2-(((2S)-1-((3S)-7-(2-((6-(2-(2,6-dioxopiperidin-3-yl)-1,3-dioxoisoindolin-4-yl)hex-5-yn-1-yl)amino)-2-oxoethoxy)-3-((R)-2-phenylmorpholine-4-carbonyl)-3,4-dihydroisoquinolin-2(1H)-yl)-3,3-dimethyl-1-oxobutan-2-yl)carbamoyl)benzo[b]thiophen-5-yl)difluoromethyl)phosphonic acid] |  | > 10 µM |  |
| Cc1ncsc1-c1ccc([C@H](C)NC(=O)[C@@H]2C[C@@H](O)CN2C(=O)[C@@H](NC(=O)CCCCCCCCCNC(=O)COc2ccc3c(c2)CN(C(=O)[C@@H](NC(=O)c2cc4cc(C(F)(F)P(=O)(O)O)ccc4s2)C(C)(C)C)[C@H](C(=O)N2CCO[C@H](c4ccccc4)C2)C3)C(C)(C)C)cc1 [Compound 469, (difluoro(2-(((S)-1-((S)-7-(2-((10-(((S)-1-((2S,4R)-4-hydroxy-2-(((S)-1-(4-(4-methylthiazol-5-yl)phenyl)ethyl)carbamoyl)pyrrolidin-1-yl)-3,3-dimethyl-1-oxobutan-2-yl)amino)-10-oxodecyl)amino)-2-oxoethoxy)-3-((R)-2-phenylmorpholine-4-carbonyl)-3,4-dihydroisoquinolin-2(1H)-yl)-3,3-dimethyl-1-oxobutan-2-yl)carbamoyl)benzo[b]thiophen-5-yl)methyl)phosphonic acid] | > 10 µM | > 10 µM |  |
| Cc1ncsc1-c1ccc([C@H](C)NC(=O)[C@@H]2C[C@@H](O)CN2C(=O)[C@@H](NC(=O)CCCCCCCNC(=O)CO[C@H]2C[C@@H](C(=O)N3CCC[C@H](c4ccccc4)C3)N(C(=O)[C@@H](NC(=O)c3cc4cc(C(F)(F)P(=O)(O)O)ccc4s3)C(C)(C)C)C2)C(C)(C)C)cc1 [Compound 440, (difluoro(2-(((S)-1-((2S,4S)-4-(2-((8-(((S)-1-((2S,4R)-4-hydroxy-2-(((S)-1-(4-(4-methylthiazol-5-yl)phenyl)ethyl)carbamoyl)pyrrolidin-1-yl)-3,3-dimethyl-1-oxobutan-2-yl)amino)-8-oxooctyl)amino)-2-oxoethoxy)-2-((R)-3-phenylpiperidine-1-carbonyl)pyrrolidin-1-yl)-3,3-dimethyl-1-oxobutan-2-yl)carbamoyl)benzo[b]thiophen-5-yl)methyl)phosphonic acid] | > 10 µM | > 10 µM |  |
| CC(C)(C)[C@H](NC(=O)c1cc2cc(C(F)(F)P(=O)(O)O)ccc2s1)C(=O)N1Cc2cc(OCC(=O)NCCCCCC#Cc3cccc4c3C(=O)N(C3CCC(=O)NC3=O)C4=O)ccc2C[C@H]1C(=O)N1CCO[C@H](c2ccccc2)C1 (stereo partly drawn) [Compound 543, ((2-(((2S)-1-((3S)-7-(2-((7-(2-(2,6-dioxopiperidin-3-yl)-1,3-dioxoisoindolin-4-yl)hept-6-yn-1-yl)amino)-2-oxoethoxy)-3-((R)-2-phenylmorpholine-4-carbonyl)-3,4-dihydroisoquinolin-2(1H)-yl)-3,3-dimethyl-1-oxobutan-2-yl)carbamoyl)benzo[b]thiophen-5-y)difluoromethyl)phosphonic acid] |  | > 10 µM |  |
| CC(C)(C)[C@H](NC(=O)c1cc2cc(C(F)(F)P(=O)(O)O)ccc2s1)C(=O)N1CCN(C(=O)CC(=O)NCCCCC#Cc2cccc3c2C(=O)N(C2CCC(=O)NC2=O)C3=O)C[C@H]1C(=O)N1CCC[C@H](c2ccccc2)C1 (stereo partly drawn) [Compound 527, ((2-(((2S)-1-((2S)-4-(3-((6-(2-(2,6-dioxopiperidin-3-yl)-1,3-dioxoisoindolin-4-yl)hex-5-yn-1-yl)amino)-3-oxopropanoyl)-2-((R)-3-phenylpiperidine-1-carbonyl)piperazin-1-yl)-3,3-dimethyl-1-oxobutan-2-yl)carbamoyl)benzo[b]thiophen-5-yl)difluoromethyl)phosphonic acid] |  | > 10 µM |  |
